Assays:
[1] = system: S6 Ribosomal Protein phosphorylation Ser235/236 in TSC1 null mouse embryo fibroblast (MEF) cells; assay: Reverse protein array assay, S6 Ribosomal Protein phosphorylation Ser235/236 in TSC1 null MEF cells; format: cell-based; details: 1 h, pS6 ribosomal protein Ser235/236, 60 minutes incubation, read-out: p-S6 IC50
Outline: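 TSC1−/− MEFs, seeded and held ≥20 h at 37 °C/5% CO2, were exposed to 8-step serial compound dilutions (0.02% DMSO final; DMSO vehicle control) for 60 min at 37 °C. Cells were then lysed on ice for 10 min and lysates spotted onto reverse protein array chips.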

mTOR = biological target: T1, mTOR (Homo sapiens, UniProt P42345); assay: Biochemical assay for m-TOR by TR-FRET; details: 8 μM ATP, 400 nM GFP-4EBP1, 0.5 nM mTOR
T1 construct: purchased Invitrogen Corporation (Carlsbad/CA, USA) PV4753
Outline: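 Enzyme 0.5 nM, GFP-4EBP1 400 nM, ATP 8 μM (all final); 50 mM HEPES pH 7.5, 10 mM MnCl2, 1 mM DTT; rt. Detection: Tb-α-p4EBP1 [pT46] 0.5 nM in EDTA, TR-FRET, 15 min. Reference compound on every plate, 16-point duplicate dilutions.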

PI3K alpha = biological target: T2, PI3K alpha (Homo sapiens, UniProt P42336); assay: PI3K alpha kinase assay (Kinase-Glo luminescence); format: biochemical
T2 construct: p85(iSH2) fusion partner (see partner chain) (N); His tag (C); made in house; host or cells: baculovirus; Tn5 (Trichoplusia ni) or TiniPro insect cells
Outline: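 Compounds are titrated at 8 concentrations and mixed with PI3Kα protein (EMV B1075, 10 nM) in phosphatidylinositol (10 μg/mL). ATP at 1 μM starts the 60-minute room-temperature reaction, which is stopped with Kinase-Glo before luminescence reading. Four-parameter curve fitting gives IC50.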

T2 sequence (P42336 with tags, fused parts or gaps limits assumed): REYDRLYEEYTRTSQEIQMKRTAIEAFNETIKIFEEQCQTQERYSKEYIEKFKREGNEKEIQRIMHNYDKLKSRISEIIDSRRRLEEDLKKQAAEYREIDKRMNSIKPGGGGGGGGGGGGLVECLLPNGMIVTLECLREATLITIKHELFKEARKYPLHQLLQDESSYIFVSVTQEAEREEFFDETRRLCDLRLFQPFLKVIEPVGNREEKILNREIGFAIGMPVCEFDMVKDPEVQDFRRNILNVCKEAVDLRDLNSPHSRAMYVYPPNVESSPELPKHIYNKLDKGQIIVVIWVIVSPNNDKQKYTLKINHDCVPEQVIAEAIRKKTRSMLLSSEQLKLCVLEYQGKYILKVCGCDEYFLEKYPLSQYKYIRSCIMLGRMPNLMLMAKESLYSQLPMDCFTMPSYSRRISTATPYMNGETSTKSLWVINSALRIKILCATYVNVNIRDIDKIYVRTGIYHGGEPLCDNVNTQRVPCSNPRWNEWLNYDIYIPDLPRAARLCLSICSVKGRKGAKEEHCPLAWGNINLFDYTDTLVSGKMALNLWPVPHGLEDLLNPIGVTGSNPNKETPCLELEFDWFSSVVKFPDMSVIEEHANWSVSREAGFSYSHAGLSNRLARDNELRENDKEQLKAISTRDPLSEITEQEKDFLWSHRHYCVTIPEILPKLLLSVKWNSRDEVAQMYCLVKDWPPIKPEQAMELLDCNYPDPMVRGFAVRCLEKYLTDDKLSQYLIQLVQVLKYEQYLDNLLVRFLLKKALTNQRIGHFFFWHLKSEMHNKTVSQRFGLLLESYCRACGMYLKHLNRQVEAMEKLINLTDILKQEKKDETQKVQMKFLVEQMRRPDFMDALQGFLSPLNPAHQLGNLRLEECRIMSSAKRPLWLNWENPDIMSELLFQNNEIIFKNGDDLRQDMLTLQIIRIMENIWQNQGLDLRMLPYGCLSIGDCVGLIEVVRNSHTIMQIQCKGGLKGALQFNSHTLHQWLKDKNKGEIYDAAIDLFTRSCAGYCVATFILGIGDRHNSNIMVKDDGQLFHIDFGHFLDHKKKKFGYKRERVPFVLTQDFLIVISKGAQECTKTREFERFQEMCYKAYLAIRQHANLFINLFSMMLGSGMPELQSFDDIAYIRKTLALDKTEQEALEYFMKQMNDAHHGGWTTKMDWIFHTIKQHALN
T1 sequence (P42345 1360-2549 limits assumed): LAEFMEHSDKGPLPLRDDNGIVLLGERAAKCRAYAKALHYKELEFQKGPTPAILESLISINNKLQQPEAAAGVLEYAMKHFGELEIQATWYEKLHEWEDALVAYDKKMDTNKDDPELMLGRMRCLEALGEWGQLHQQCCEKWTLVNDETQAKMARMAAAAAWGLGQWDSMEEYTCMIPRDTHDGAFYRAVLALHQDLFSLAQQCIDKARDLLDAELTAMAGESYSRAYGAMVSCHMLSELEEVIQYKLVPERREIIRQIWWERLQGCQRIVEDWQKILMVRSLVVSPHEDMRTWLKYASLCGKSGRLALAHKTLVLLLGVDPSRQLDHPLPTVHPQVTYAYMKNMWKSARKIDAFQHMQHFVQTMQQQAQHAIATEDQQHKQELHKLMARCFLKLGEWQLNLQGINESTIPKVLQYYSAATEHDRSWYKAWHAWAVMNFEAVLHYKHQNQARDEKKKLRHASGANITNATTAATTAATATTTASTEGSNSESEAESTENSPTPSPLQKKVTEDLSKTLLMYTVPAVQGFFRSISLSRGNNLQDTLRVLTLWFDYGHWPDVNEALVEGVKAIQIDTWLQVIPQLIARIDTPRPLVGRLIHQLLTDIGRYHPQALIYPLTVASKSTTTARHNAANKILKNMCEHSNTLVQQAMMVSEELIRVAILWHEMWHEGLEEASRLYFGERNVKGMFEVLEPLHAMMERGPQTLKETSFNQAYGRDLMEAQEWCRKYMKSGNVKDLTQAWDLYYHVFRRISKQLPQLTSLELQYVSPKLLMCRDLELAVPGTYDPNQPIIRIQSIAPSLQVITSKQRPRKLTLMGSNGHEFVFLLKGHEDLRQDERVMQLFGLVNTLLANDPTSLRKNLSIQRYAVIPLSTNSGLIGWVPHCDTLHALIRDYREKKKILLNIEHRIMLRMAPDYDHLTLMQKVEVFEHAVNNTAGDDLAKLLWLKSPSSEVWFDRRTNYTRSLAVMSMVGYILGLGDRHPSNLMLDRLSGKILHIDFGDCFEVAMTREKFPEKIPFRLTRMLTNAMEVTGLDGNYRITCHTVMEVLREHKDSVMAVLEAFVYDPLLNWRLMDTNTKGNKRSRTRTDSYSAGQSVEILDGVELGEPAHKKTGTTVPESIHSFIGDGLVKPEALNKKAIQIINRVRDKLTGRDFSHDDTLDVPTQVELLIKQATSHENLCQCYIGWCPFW

Row | SMILES | IC50 [1] | IC50 (mTOR) | IC50 (PI3K alpha)
1 | Cc1nn(C)cc1-n1c(=O)n(C)c2cnc3ccc(-c4cnc5c(c4)OCCN5C)cc3c21 [Example 209, 1-(1,3-Dimethyl-1H-pyrazol-4-yl)-3-methyl-8-(4-methyl-3,4-dihydro-2H-pyrido[3,2-b][1,4]oxazin-7-yl)-1,3-dihydro-imidazo[4,5-c]quinolin-2-one] | 2 nM | 21 nM | 6 nM
2 | Cc1nn(C)cc1-n1c(=O)n(C)c2cnc3ccc(-c4cncc(C(C)(C)O)c4)cc3c21 [Example 215.2, 1-(1,3-Dimethyl-1H-pyrazol-4-yl)-8-[5-(1-hydroxy-1-methyl-ethyl)-pyridin-3-yl]-3-methyl-1,3-dihydro-imidazo[4,5-c]quinolin-2-one] | 3 nM | 9 nM | 14 nM
3 | Cc1nn(C)cc1-n1c(=O)n(C)c2cnc3ccc(-c4cncc(C5(O)CCCC5)c4)cc3c21 [Example 218, 1-(1,3-Dimethyl-1H-pyrazol-4-yl)-8-[5-(1-hydroxy-cyclopentyl)-pyridin-3-yl]-3-methyl-1,3-dihydro-imidazo[4,5-c]quinolin-2-one] | < 0.5 nM | 41 nM | 13 nM
4 | Cc1nn(C)cc1-n1c(=O)n(C)c2cnc3ccc(-c4cncc(C(C)(C)C#N)c4)cc3c21 [Example 220.1, 2-{5-[1-(1,3-Dimethyl-1H-pyrazol-4-yl)-3-methyl-2-oxo-2,3-dihydro-1H-imidazo[4,5-c]quinolin-8-yl]-pyridin-3-yl}-2-methyl-propionitrile] | 1 nM | 27 nM | 9 nM
5 | CNC(=O)c1cc(-c2ccc3ncc4c(c3c2)n(-c2cn(C(C)C)nc2C)c(=O)n4C)cnc1N [Example 224.2, 2-Amino-5-[1-(1-isopropyl-3-methyl-1H-pyrazol-4-yl)-3-methyl-2-oxo-2,3-dihydro-1H-imidazo[4,5-c]quinolin-8-yl]-N-methyl-nicotinamide] | 20 nM | 24 nM | 93 nM
6 | COc1ncc(-c2ccc3ncc4c(c3c2)n(-c2cn(C)nc2C)c(=O)n4C)c(OC)n1 [Example 234.2, 8-(2,4-Dimethoxy-pyrimidin-5-yl)-1-(1,3-dimethyl-1H-pyrazol-4-yl)-3-methyl-1,3-dihydro-imidazo[4,5-c]quinolin-2-one] | 1 nM | 10 nM | < 3 nM
7 | COc1ccc(-c2ccc3ncc4[nH]c(=O)n(-c5cn(C)nc5C)c4c3n2)cc1OC [Example 249, 8-(3,4-dimethoxy-phenyl)-1-(1,3-dimethyl-1H-pyrazol-4-yl)-1,3-dihydro-1,3,5,9-tetraaza-cyclopenta[a]naphthalen-2-one] | 2 nM | 30 nM | 5 nM
8 | COc1ccc(-c2ccc3ncc4c(c3n2)n(-c2cn(C)nc2C)c(=O)n4C)cc1OC [Example 250, 8-(3,4-Dimethoxy-phenyl)-1-(1,3-dimethyl-1H-pyrazol-4-yl)-3-methyl-1,3-dihydro-1,3,5,9-tetraaza-cyclopenta[a]naphthalen-2-one] | 13 nM | 135 nM | 5 nM

Reference: patent US20140005163A1 (NOVARTIS AG, priority 2010, published 2014)
